Values after ≈ are worked out from the molar mass of the structure shown.
Assays:
Mus musculus [1] = experiment: In vitro antimalarial activity against chloroquine-resistant (Smith) isolates of Plasmodium falciparum at dose 160 mg/kg in mice (Mus musculus); assay type: functional
Mus musculus [2] = experiment: In vivo toxicity against chloroquine-resistant (Smith) isolates of Plasmodium berghei in mice (Mus musculus); assay type: functional

With `CC1=C[C@H]2C[C@]3(C)CC[C@H]4[C@H](C)C(=O)O[C@@H]4C13OO2` (single isomer, unassigned) the ED50 (Mus musculus [1]) was 728.59 ng/mL (≈ 2.76 µM) and the Toxicity (Mus musculus [2]) was 640 mg/kg.
With `C[C@@H]1CC[C@H]2[C@@H](C)C(=O)O[C@@H]3O[C@@]4(C)CC[C@@H]1[C@]32OO4` [ARTEMISININ] the ED50 (Mus musculus [1]) was less than 3.4 ng/mL.

Source: ChEMBL document CHEMBL1122855, “Antimalarial agents. 1. alpha-Santonin-derived cyclic peroxide as potential antimalarial agent” (1985)
